In ChEMBL document CHEMBL1133242, “Selective alpha1a adrenergic receptor antagonists based on 4-aryl-3,4-dihydropyridine-2-ones” (Bioorg Med Chem Lett, 2000):

How the values were obtained:
[1] = target: T1, Alpha-1D adrenergic receptor (Homo sapiens, UniProt P25100); assay: In vitro antagonism at Alpha-1D adrenergic receptor; format: functional
T1 sequence (P25100 whole entry): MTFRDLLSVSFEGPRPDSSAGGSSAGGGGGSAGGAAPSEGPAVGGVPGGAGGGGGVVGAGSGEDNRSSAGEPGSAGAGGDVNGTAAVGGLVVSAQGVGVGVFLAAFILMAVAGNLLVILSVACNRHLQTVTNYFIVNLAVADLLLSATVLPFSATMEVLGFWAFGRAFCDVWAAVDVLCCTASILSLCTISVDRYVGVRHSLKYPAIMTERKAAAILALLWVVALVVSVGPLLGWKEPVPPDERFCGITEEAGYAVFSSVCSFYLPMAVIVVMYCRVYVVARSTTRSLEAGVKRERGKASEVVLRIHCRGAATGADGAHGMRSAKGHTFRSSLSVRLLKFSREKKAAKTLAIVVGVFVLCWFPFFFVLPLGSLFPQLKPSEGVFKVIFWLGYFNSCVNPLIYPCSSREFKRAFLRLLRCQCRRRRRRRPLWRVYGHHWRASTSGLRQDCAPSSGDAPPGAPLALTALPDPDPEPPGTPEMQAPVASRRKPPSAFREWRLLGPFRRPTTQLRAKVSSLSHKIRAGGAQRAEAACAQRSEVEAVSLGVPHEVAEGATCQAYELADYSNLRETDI

[2] = target: T2, Alpha-1B adrenergic receptor (Homo sapiens, UniProt P35368); assay: In vitro antagonism at Alpha-1B adrenergic receptor; format: functional
T2 sequence (P35368 whole entry): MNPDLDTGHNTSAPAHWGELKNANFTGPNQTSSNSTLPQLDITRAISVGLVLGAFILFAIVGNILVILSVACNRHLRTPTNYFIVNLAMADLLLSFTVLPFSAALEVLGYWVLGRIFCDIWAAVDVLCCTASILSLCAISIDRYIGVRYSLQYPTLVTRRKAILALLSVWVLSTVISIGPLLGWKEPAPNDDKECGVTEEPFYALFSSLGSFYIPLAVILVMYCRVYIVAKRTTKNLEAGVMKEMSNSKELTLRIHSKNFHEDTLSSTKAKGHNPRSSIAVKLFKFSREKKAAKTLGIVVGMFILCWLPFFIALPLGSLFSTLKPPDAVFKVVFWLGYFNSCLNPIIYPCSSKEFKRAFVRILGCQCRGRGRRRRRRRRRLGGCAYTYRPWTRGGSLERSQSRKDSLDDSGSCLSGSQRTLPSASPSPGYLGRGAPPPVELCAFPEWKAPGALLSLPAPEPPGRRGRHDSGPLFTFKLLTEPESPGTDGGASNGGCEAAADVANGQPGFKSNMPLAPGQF

[3] = target: T3, Alpha-1A adrenergic receptor (Homo sapiens, UniProt P35348); assay: In vitro antagonism at Alpha-1A adrenergic receptor; format: functional
T3 sequence (P35348 whole entry): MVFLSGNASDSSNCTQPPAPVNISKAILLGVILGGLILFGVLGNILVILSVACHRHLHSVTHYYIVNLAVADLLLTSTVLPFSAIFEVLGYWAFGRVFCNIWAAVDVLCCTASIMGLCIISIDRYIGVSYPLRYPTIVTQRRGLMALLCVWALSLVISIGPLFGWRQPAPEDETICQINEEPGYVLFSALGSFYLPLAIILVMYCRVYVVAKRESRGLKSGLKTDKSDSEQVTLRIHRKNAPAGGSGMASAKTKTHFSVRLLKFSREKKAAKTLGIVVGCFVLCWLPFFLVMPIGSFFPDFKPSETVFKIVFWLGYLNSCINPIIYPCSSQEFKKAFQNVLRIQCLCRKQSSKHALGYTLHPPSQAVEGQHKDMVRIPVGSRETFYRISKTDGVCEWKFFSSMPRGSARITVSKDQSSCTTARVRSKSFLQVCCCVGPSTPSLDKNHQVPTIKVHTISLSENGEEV

[4] = target: Histamine H1 receptor (Homo sapiens, UniProt P35367); assay: Selectivity screen against human Histamine H1 receptor
Chain of Histamine H1 receptor (P35367 whole entry): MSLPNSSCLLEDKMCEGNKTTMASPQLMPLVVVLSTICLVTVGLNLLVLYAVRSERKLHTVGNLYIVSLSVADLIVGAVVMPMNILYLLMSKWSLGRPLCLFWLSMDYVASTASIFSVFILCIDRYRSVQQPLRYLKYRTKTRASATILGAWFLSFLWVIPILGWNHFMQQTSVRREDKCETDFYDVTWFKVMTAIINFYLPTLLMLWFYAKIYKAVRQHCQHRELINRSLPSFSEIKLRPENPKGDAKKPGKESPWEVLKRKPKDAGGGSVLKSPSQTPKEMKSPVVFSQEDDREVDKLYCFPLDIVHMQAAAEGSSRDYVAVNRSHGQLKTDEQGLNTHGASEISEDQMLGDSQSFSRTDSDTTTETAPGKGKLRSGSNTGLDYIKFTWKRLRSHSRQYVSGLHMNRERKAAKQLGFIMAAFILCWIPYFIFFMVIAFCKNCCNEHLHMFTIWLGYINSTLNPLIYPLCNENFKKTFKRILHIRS

[5] = target: T4, Alpha-2C adrenergic receptor (Homo sapiens, UniProt P18825); assay: […] inhibitory effect against Alpha-2C adrenergic receptor
T4 sequence (P18825 whole entry): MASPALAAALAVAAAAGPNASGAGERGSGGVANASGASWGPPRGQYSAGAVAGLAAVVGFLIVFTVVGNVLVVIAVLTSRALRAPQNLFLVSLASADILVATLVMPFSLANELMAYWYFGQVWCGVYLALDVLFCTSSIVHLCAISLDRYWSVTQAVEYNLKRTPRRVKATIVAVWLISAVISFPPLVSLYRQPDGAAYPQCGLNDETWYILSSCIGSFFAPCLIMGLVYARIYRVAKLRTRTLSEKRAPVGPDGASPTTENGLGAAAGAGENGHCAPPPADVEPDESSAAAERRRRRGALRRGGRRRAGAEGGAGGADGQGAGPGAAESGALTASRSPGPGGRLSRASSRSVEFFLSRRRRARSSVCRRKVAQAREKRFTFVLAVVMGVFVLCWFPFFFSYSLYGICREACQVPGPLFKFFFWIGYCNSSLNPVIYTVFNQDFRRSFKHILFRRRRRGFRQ

[6] = target: T5, Alpha-2B adrenergic receptor (Homo sapiens, UniProt P18089); assay: […] inhibitory effect against alpha-2b Adrenergic receptor
T5 sequence (P18089 whole entry): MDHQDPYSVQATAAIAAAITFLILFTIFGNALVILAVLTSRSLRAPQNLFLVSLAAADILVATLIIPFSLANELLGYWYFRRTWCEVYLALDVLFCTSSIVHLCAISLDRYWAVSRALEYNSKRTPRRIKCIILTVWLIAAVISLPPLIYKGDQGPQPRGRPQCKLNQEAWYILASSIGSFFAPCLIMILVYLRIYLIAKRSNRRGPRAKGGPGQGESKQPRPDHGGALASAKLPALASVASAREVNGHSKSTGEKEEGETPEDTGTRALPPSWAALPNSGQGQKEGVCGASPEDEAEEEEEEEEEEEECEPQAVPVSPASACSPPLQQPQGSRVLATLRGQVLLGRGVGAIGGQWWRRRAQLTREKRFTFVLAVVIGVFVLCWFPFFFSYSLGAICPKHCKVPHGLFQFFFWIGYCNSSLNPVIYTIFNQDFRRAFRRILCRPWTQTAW

[7] = species: Rattus norvegicus; assay: Dose required to inhibit the prostate contractile response by 50% after challenge with selective alpha-1a agonist A61603 and duration of action was 4 hr in an in situ rat prostate model; format: functional, Prostate gland
[8] = t1/2 value in rat; format: ADME, organism-based; conditions: in vivo
[9] = target: T6, Alpha-2A adrenergic receptor (Homo sapiens, UniProt P08913); assay: […] inhibitory effect against Alpha-2A adrenergic receptor
T6 sequence (P08913 whole entry): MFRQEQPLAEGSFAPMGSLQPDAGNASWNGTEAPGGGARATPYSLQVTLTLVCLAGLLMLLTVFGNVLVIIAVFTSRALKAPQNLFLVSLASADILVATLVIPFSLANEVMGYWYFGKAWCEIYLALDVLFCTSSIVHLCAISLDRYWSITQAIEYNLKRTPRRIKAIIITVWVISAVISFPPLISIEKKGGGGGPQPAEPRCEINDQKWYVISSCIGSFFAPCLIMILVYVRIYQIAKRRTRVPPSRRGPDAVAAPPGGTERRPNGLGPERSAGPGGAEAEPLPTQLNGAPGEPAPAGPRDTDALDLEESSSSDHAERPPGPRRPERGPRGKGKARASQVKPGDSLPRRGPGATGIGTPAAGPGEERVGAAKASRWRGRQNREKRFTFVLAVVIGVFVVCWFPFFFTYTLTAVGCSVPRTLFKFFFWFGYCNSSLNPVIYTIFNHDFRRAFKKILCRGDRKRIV

[10] = species: Rattus norvegicus; assay: Dose required to inhibit the prostate contractile response by 50% after challenge with selective alpha-1a agonist A61603 in an in situ rat prostate model; format: functional, Prostate gland
[11] = species: Rattus norvegicus; assay: Dose required to inhibit the prostate contractile response by 50% after challenge with selective alpha-1a agonist A61603 and duration of action was 1.5h in an in situ rat prostate model; format: functional, Prostate gland
[12] = species: Rattus norvegicus; assay: Dose required to inhibit the prostate contractile response by 50% after challenge with selective alpha-1a agonist A61603 and duration of action was 1 hr in an in situ rat prostate model; format: functional, Prostate gland
[13] = Percent bioavailability in dog; format: ADME, organism-based, Canis lupus familiaris; conditions: in vivo, read-out: Bioavailabiility
[14] = species: Rattus norvegicus; assay: Dose required to inhibit the prostate contractile response by 50% after challenge with selective alpha-1a agonist A61603 and duration of action was 2.5h in an in situ rat prostate model; format: functional, Prostate gland
[15] = species: Rattus norvegicus; assay: Dose required to inhibit the prostate contractile response by 50% after challenge with selective alpha-1a agonist A61603 and duration of action was 3.5h in an in situ rat prostate model; format: functional, Prostate gland

SMILES | Ki [1] [nM] | Ki [2] [nM] | Ki [3] [nM] | Ki [4] [nM] | Ki [5] [nM] | Ki [6] [nM] | AD50 [7] [µg/kg] | half-life [8] [min] | Ki [9] [nM] | AD50 [10] [µg/kg] | AD50 [11] [µg/kg] | AD50 [12] [µg/kg] | bioavailability [13] [%] | AD50 [14] [µg/kg] | AD50 [15] [µg/kg]
CC1=C(C(=O)NCCCN2CCC(c3ccc(F)cc3)CC2)[C@@H](c2ccc(F)c(F)c2)CC(=O)N1C | 250 | 54 | 0.7 | – | – | – | – | – | – | – | – | – | – | – | –
CC1=C(C(=O)NCCCN2CCC(C#N)(c3ccc(F)cc3)CC2)[C@@H](c2ccc(F)c(F)c2)CC(=O)N1 | 1050 | 1040 | 1.8 | 63 | – | – | – | – | – | – | – | – | – | – | –
CC1=C(C(=O)NCCCN2CCC(c3ccc(F)cc3C#N)CC2)[C@@H](c2ccc(F)c(F)c2)CC(=O)N1C | 590 | 366 | 0.8 | 398 | 3850 | 288 | 9 | 84 | 4520 | – | – | – | – | – | –
CC1=C(C(=O)NCCCN2CCC(C#N)(c3ccc(F)cc3)CC2)[C@@H](c2ccc(F)c(F)c2)CC(=O)N1C | 880 | 425 | 1.9 | 355 | 1100 | 776 | – | – | 1860 | 25 | – | – | – | – | –
CC1=C(C(=O)NCCCN2CCC(C#N)(c3ccc(F)cc3F)CC2)[C@@H](c2ccc(F)c(F)c2)CC(=O)N1 | 588 | 805 | 1 | 108 | 2000 | 531 | – | – | 1970 | – | 17 | – | – | – | –
CC1=C(C(=O)NCCCN2CCC(C#N)(c3ccc(F)cc3F)CC2)[C@@H](c2ccc(F)c(F)c2)CC(=O)N1C | 1160 | 842 | 1.1 | 302 | 1910 | 955 | – | – | 3390 | – | – | 29 | – | – | –
CC1=C(C(=O)NCCCN2CCC(c3ccccc3C#N)CC2)[C@@H](c2ccc(F)c(F)c2)CC(=O)N1C | 682 | 1200 | 3 | – | – | – | – | – | – | – | – | – | – | – | –
CC1=C(C(=O)NCCCN2CCC(C#N)(c3ccccn3)CC2)[C@@H](c2ccc(F)c(F)c2)CC(=O)N1C | > 5000 | > 2000 | – | – | – | – | – | – | – | – | – | – | – | – | –
CC1=C(C(=O)NCC(C)CN2CCC(C#N)(c3ccccn3)CC2)[C@@H](c2ccc(F)c(F)c2)CC(=O)N1 (stereo not given in full) | > 5000 | > 2000 | 42 | – | – | – | – | – | – | – | – | – | – | – | –
CC1=C(C(=O)NCCCN2CCC(C#N)(c3ccc(F)cc3C#N)CC2)[C@@H](c2ccc(F)c(F)c2)CC(=O)N1 | > 5000 | > 2000 | 1.4 | 91 | 4680 | 676 | – | – | 7850 | – | – | – | – | – | –
CC1=C(C(=O)NCCCN2CCC(c3ccccc3C#N)CC2)[C@@H](c2ccc(F)c(F)c2)CC(=O)N1 | 330 | 330 | 1 | – | – | – | – | – | – | – | – | – | – | – | –
CC1=C(C(=O)NCCCN2CCC(c3ccc(F)cc3C#N)CC2)[C@@H](c2ccc(F)c(F)c2)CC(=O)N1 | 150 | 100 | 0.2 | 58 | 1480 | 145 | – | 288 | 1290 | – | – | – | 34 | 5 | –
CC1=C(C(=O)NCCCN2CCC(C#N)(c3ccc(F)cc3C#N)CC2)[C@@H](c2ccc(F)c(F)c2)CC(=O)N1C | > 5000 | > 2000 | 7 | 616 | 6530 | 1760 | – | – | 13600 | – | – | – | – | – | –
CC1=C(C(=O)NCCCN2CCC(C#N)(c3ccccc3C#N)CC2)[C@@H](c2ccc(F)c(F)c2)CC(=O)N1C | > 5000 | > 2000 | 13 | – | – | – | – | – | – | – | – | – | – | – | –
CC1=C(C(=O)NCCCN2CCC(c3ccc(F)cc3)CC2)[C@@H](c2ccc(F)c(F)c2)CC(=O)N1 | 200 | 37 | 0.4 | 19 | 313 | 162 | – | – | 229 | 32 | – | – | – | – | –
CC1=C(C(=O)NCCCN2CCC(C#N)(c3ccccc3C#N)CC2)[C@@H](c2ccc(F)c(F)c2)CC(=O)N1 | > 5000 | > 2000 | 3.2 | – | – | – | – | – | – | – | – | – | – | – | –
CCOc1ccccc1OCCN[C@H](C)Cc1ccc(OC)c(S(N)(=O)=O)c1 [TAMSULOSIN] | – | – | – | – | – | – | – | – | – | – | – | – | – | – | 3
